Our source for the TGI values is PubChem BioAssay (NCI).

Test systems include SK-MEL-28 melanoma; HOP-62 NSCLC; HOP-92 NSCLC; SR leukemia; TK-10 renal; MDA-MB-231 breast.
Holding throughout (assay): growth of human tumour cells (NCI), 48 h

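Test compounds were applied to cells in 96-well plates for 48 hours at 5 doses. The concentration for full growth arrest is given as TGI.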

Take `CCCC[P+](CCCC)(CCCC)C(C(=O)OC)C(C(=O)OC)=C1SC(C(=O)OC)=C(C(=O)OC)S1` (stereo not given): the TGI with SK-MEL-28 melanoma, in the experiment with HOP-62 NSCLC, in the experiment on HOP-92 NSCLC, in the experiment on SR leukemia, in the experiment with TK-10 renal and in the experiment on MDA-MB-231 breast was > 100 µM each time.

Take `Cc1nc2ccc(S(=O)(=O)Nc3ccccn3)cc2c(=O)n1NS(=O)(=O)c1ccccn1`: the TGI in the experiment on SK-MEL-28 melanoma, with HOP-62 NSCLC, with HOP-92 NSCLC, in the experiment on SR leukemia, in the experiment on TK-10 renal and in the experiment on MDA-MB-231 breast was > 100 µM in each case.

With `CC1(C)C2CC1C(/C=N\OCC(=O)O)=CC2=O` (stereo not given), the TGI with SK-MEL-28 melanoma, in the experiment with HOP-62 NSCLC, in the experiment on HOP-92 NSCLC, with SR leukemia, with TK-10 renal and in the experiment on MDA-MB-231 breast was > 100 µM in each case.

In the case of `CCOC(=O)CCN1C(=O)c2ccc(NC(=O)C(=O)O)cc2S1(=O)=O`, the TGI with SK-MEL-28 melanoma, in the experiment on HOP-62 NSCLC, in the experiment on HOP-92 NSCLC, in the experiment with SR leukemia, in the experiment on TK-10 renal and with MDA-MB-231 breast was > 100 µM each time.

Take `CSC1=C(C)S/C(=C\c2ccc(/C=C3\SC(C)=C(SC)S3)cc2)S1`: the TGI with SK-MEL-28 melanoma, in the experiment with HOP-62 NSCLC, in the experiment with HOP-92 NSCLC, in the experiment on SR leukemia, in the experiment with TK-10 renal and in the experiment on MDA-MB-231 breast was > 100 µM throughout.

For the compound `Cc1ccc(/C(O)=C/c2nc3ccccc3nc2NC23CC4CC(CC(C4)C2)C3)cc1`, the TGI in the experiment on SK-MEL-28 melanoma, in the experiment with HOP-62 NSCLC, in the experiment with HOP-92 NSCLC, in the experiment on SR leukemia, in the experiment on TK-10 renal and with MDA-MB-231 breast was > 10 µM throughout.

With `CCCCCCCCCCCCOCCCCCCCCC/C=C/c1ccc2c(c1)OCCOCCOCCOCCO2`, the TGI with SK-MEL-28 melanoma was > 100 µM; in the experiment on HOP-62 NSCLC it was 51.4 µM; with HOP-92 NSCLC, 26.5 µM; in the experiment on SR leukemia it was 49.1 µM; in the experiment with TK-10 renal, 41.5 µM; in the experiment on MDA-MB-231 breast, 37.7 µM.

Consider `N/C(=N\Nc1cccc(Cl)c1)c1cccnc1`, for which the TGI is > 100 µM in the experiment with SK-MEL-28 melanoma; > 100 µM in the experiment with HOP-62 NSCLC; > 100 µM in the experiment with HOP-92 NSCLC; 64.9 µM in the experiment on SR leukemia; > 100 µM with TK-10 renal; > 100 µM with MDA-MB-231 breast.

For `C(=C\c1ccccc1)/Cn1nc(-c2ccccc2)nc1-c1cnccn1`, the TGI in the experiment with SK-MEL-28 melanoma, with HOP-62 NSCLC, in the experiment on HOP-92 NSCLC, in the experiment on SR leukemia, in the experiment with TK-10 renal and in the experiment with MDA-MB-231 breast was > 100 µM in each case.

As for `O=C(c1c(F)c(F)c(F)c(F)c1F)n1c(=O)[nH]c2ccccc21`, the TGI came to 28.3 µM in the experiment on SK-MEL-28 melanoma; 31.6 µM with HOP-62 NSCLC; 11.4 µM in the experiment with HOP-92 NSCLC; 8.8 µM in the experiment with SR leukemia; 18.5 µM in the experiment on TK-10 renal; 26.8 µM in the experiment with MDA-MB-231 breast.

With `CC(C)/C(Cl)=N/OC(NC(=O)Nc1ccc(Cl)c(Cl)c1)(C(F)(F)F)C(F)(F)F`, the TGI in the experiment with SK-MEL-28 melanoma was 35.3 µM; in the experiment on HOP-62 NSCLC, 42.5 µM; in the experiment on HOP-92 NSCLC it was 29.7 µM; in the experiment on SR leukemia, > 100 µM; with TK-10 renal, 31.2 µM; in the experiment on MDA-MB-231 breast, 34.2 µM.

Consider `COC(=O)CC(SCCO)SCCO`, for which the TGI in the experiment with SK-MEL-28 melanoma, in the experiment on HOP-62 NSCLC, in the experiment with HOP-92 NSCLC, in the experiment with SR leukemia, in the experiment on TK-10 renal and in the experiment on MDA-MB-231 breast was > 100 µM throughout.

Consider `Nc1nc([O-])c([I+]c2ccccc2)c(=O)[nH]1`, for which the TGI in the experiment with SK-MEL-28 melanoma, in the experiment with HOP-62 NSCLC, in the experiment with HOP-92 NSCLC, with SR leukemia, in the experiment with TK-10 renal and in the experiment with MDA-MB-231 breast was > 100 µM each time.

Turning to `CN(C(=O)C12C3C4C1C1C2C3C41C(=O)O)C(C)(C)C` (stereo not given), the TGI in the experiment on SK-MEL-28 melanoma, with HOP-62 NSCLC, in the experiment on HOP-92 NSCLC, with SR leukemia, with TK-10 renal and with MDA-MB-231 breast was > 100 µM in each case.

For `Cc1cccc2c1CC(C1OC(=O)c3c(C)cccc31)C2=O` (stereo not given), the TGI in the experiment on SK-MEL-28 melanoma, with HOP-62 NSCLC, with HOP-92 NSCLC, with SR leukemia, in the experiment with TK-10 renal and in the experiment on MDA-MB-231 breast was > 100 µM throughout.

In the case of `COc1ccc(/C=C/C(=N/NC(=O)N/N=C(/C=C/c2ccc(OC)cc2)C(C)C)C(C)C)cc1`, the TGI in the experiment with SK-MEL-28 melanoma, in the experiment with HOP-62 NSCLC, with HOP-92 NSCLC, in the experiment on SR leukemia, in the experiment with TK-10 renal and in the experiment with MDA-MB-231 breast was > 100 µM throughout.

Turning to `CCOc1cc(NC(C)=O)ccc1C(=O)NN1C(=O)C(Cl)C1c1ccc(O)c(OC)c1` (stereo not given), the TGI in the experiment with SK-MEL-28 melanoma is 38.2 µM; with HOP-62 NSCLC, 35.8 µM; with HOP-92 NSCLC, 32.3 µM; in the experiment with SR leukemia, 19.5 µM; in the experiment with TK-10 renal it was 11.5 µM; with MDA-MB-231 breast, 26.9 µM.

Regarding `CCOC(=O)C(C)c1nc2cc(F)c(N3CCOCC3)cc2[nH]c1=O` (stereo not given), the TGI in the experiment with SK-MEL-28 melanoma, in the experiment with HOP-62 NSCLC, in the experiment with HOP-92 NSCLC, with SR leukemia, in the experiment on TK-10 renal and in the experiment with MDA-MB-231 breast was > 100 µM in each case.

As to `N#CCN(Cc1ccccc1)[C@H]1CCC[C@]1(O)/C=C/c1ccc2c(c1)OCO2`, the TGI with SK-MEL-28 melanoma was 34 µM; in the experiment on HOP-62 NSCLC, 82.6 µM; in the experiment with HOP-92 NSCLC, 60.9 µM; in the experiment with SR leukemia it was 40.2 µM; in the experiment on TK-10 renal, > 100 µM; in the experiment with MDA-MB-231 breast it was 71.5 µM.

For `COc1ccc(/C=C/C(=O)c2cccc(C(=O)/C=C/c3ccc(OC)c(OC)c3)n2)cc1OC`, the TGI with SK-MEL-28 melanoma was 45 µM; in the experiment with HOP-62 NSCLC, > 100 µM; in the experiment with HOP-92 NSCLC, > 100 µM; in the experiment on SR leukemia, > 25.9 µM; with TK-10 renal it was > 100 µM; in the experiment with MDA-MB-231 breast it was 70.6 µM.

For `NS(=O)(=O)c1ccc(NC(=S)/N=C/c2c(O)c3ccccc3[nH]c2=O)cc1`, the TGI in the experiment with SK-MEL-28 melanoma, with HOP-62 NSCLC, with HOP-92 NSCLC, in the experiment with SR leukemia, with TK-10 renal and in the experiment with MDA-MB-231 breast was > 100 µM each time.

Consider `O=c1oc2ccccc2cc1-c1nc2ccccc2c(=O)[nH]1`, for which the TGI in the experiment with SK-MEL-28 melanoma, in the experiment with HOP-62 NSCLC, in the experiment on HOP-92 NSCLC, in the experiment on SR leukemia, in the experiment with TK-10 renal and in the experiment with MDA-MB-231 breast was > 100 µM in each case.

Regarding `COc1ccc(OC)c2sc(N3C(=O)/C(=C/c4ccc(N(C)C)cc4)N=C3c3ccccc3)nc12`, the TGI in the experiment with SK-MEL-28 melanoma was > 100 µM; with HOP-62 NSCLC, > 100 µM; in the experiment with HOP-92 NSCLC, > 100 µM; in the experiment with SR leukemia it was 74.6 µM; in the experiment on TK-10 renal, > 100 µM; in the experiment with MDA-MB-231 breast, > 100 µM.

Take `COc1ccc2c(c1OC)C(Br)CCC(Br)(Br)C2=O` (stereo not given): the TGI in the experiment on SK-MEL-28 melanoma came out at 29.3 µM; in the experiment with HOP-62 NSCLC it was 36.7 µM; with HOP-92 NSCLC it was 9.44 µM; with SR leukemia, 4.22 µM; with TK-10 renal it was 19.4 µM; in the experiment with MDA-MB-231 breast it was 29.9 µM.

In the case of `CCOC(=O)NC(OCCN(C)C)(C(F)(F)F)C(F)(F)F`, the TGI with SK-MEL-28 melanoma, in the experiment with HOP-62 NSCLC, in the experiment on HOP-92 NSCLC, in the experiment on SR leukemia, in the experiment with TK-10 renal and with MDA-MB-231 breast was > 100 µM in each case.

Regarding `C=CCN1C(=O)/C(=C/c2ccccc2)N=C1SC/C=C/C`, the TGI with SK-MEL-28 melanoma was > 100 µM; in the experiment with HOP-62 NSCLC, > 100 µM; in the experiment on HOP-92 NSCLC, 55.5 µM; in the experiment with SR leukemia, 23.3 µM; in the experiment with TK-10 renal, > 100 µM; in the experiment on MDA-MB-231 breast, > 100 µM.

As to `Cc1ccc(-n2nnc3c(NNc4ccccc4)n[nH]c(=O)c32)cc1`, the TGI in the experiment with SK-MEL-28 melanoma is > 100 µM; in the experiment on HOP-62 NSCLC it was > 100 µM; in the experiment on HOP-92 NSCLC it was > 100 µM; with SR leukemia it was > 100 µM; with TK-10 renal, 75.4 µM; in the experiment with MDA-MB-231 breast, > 100 µM.

Regarding `Clc1ccccc1-c1nn2c(CCCCCCCCc3nnc4sc(-c5ccccc5Cl)nn34)nnc2s1`, the TGI with SK-MEL-28 melanoma, in the experiment on HOP-62 NSCLC, in the experiment with HOP-92 NSCLC, in the experiment on SR leukemia, in the experiment on TK-10 renal and with MDA-MB-231 breast was > 100 µM each time.

In the case of `Cc1cccc(/C=N/NC(=S)NC2CCCCC2)n1`, the TGI is > 100 µM with SK-MEL-28 melanoma; > 90.9 µM with HOP-62 NSCLC; 61.8 µM in the experiment with HOP-92 NSCLC; > 78.3 µM with SR leukemia; > 100 µM in the experiment on TK-10 renal; > 100 µM in the experiment on MDA-MB-231 breast.

For the compound `CC(C)(C)c1cc(C(C)(C)C)c(P=C(Cl)Cl)c(C(C)(C)C)c1` (stereo not given), the TGI with SK-MEL-28 melanoma, with HOP-62 NSCLC, in the experiment on HOP-92 NSCLC, in the experiment with SR leukemia, in the experiment on TK-10 renal and in the experiment on MDA-MB-231 breast was > 100 µM throughout.
